The values below come from patent US10344025B2, “GLS1 inhibitors for treating disease” (Board of Regents, The University of Texas System, priority 2014, dated 2019).

Each structure is given as a SMILES string.

One assay relates to A549 cells. Briefly: Proliferation Assay (A549 viability, Cell Titer Fluor, 72 hours). The following applies: Homo sapiens, A549, 72 h. It counts as cell-based. Put shortly: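 Cell Titer Fluor fluorescence after 72 h compound treatment (0.5% DMSO, 37 °C, 5% CO2) of A549 cells plated 24 h earlier at 1000/well. Four-parameter logistic fitting gave IC50.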
The target in assay [1] is purified recombinant human GAC (GLS1) (Homo sapiens (Human), UniProt O94925). Briefly: GLS1 Enzymatic Activity Assay (dual-coupled enzymatic assay, resorufin/Amplex UltraRed readout).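 Further: glutamate from GAC coupled via glutamate oxidase and peroxidase to resorufin, read as fluorescence (ex 530, em 590 nm) kinetically or at 20 min, four-parameter logistic IC50 fit.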 Type of assay: biochemical.
purified recombinant human GAC (GLS1), sequence (O94925 other isoform, or with tags, fused parts or gaps): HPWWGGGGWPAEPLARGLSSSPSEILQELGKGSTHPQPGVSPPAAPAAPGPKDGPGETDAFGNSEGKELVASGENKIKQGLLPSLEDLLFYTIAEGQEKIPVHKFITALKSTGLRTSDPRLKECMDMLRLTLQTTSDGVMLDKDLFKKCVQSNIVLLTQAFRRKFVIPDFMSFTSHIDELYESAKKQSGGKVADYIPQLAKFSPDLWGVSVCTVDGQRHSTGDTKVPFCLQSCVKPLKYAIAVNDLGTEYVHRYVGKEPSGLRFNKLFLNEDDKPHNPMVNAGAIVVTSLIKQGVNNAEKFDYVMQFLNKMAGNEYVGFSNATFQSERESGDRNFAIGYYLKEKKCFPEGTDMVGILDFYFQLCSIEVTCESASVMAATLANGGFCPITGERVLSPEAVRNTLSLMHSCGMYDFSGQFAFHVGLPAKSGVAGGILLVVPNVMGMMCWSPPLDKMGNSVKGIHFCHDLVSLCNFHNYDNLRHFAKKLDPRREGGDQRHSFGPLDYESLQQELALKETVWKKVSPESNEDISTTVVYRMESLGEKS

Turning to `O=C(NCc1cccc(OC(F)(F)F)c1)c1cn(CCC(F)Cn2cc(C(=O)NCc3cncc(C(F)(F)F)c3)nn2)nn1` (stereo not drawn) [Example 477, 1-{2-fluoro-4-[4-({[3-(trifluoromethoxy)phenyl]methyl}carbamoyl)-1H-1,2,3-triazol-1-yl]butyl}-N-{[5-(trifluoromethyl)pyridin-3-yl]methyl}-1H-1,2,3-triazole-4-carboxamide], the EC50 – broadly, the concentration at which the effect is half-maximal – with A549 cells is less than 100 nM. In addition, the IC50 (in general, the concentration needed to halve the response being measured) in assay [1] was less than 100 nM.
As to `O=C(NCc1cncc(C(F)(F)F)c1)c1cn(CCC(F)Cn2cc(C(=O)NCc3cccc(OC(F)(F)F)c3)nn2)nn1` (stereo not drawn) [Example 478, 1-{3-fluoro-4-[4-({[3-(trifluoromethoxy)phenyl]methyl}carbamoyl)-1H-1,2,3-triazol-1-yl]butyl}-N-{[5-(trifluoromethyl)pyridin-3-yl]methyl}-1H-1,2,3-triazole-4-carboxamide], in the assay with A549 cells, the EC50 is less than 100 nM. Also, the half-maximal inhibitory concentration (IC50) in assay [1] is less than 100 nM.
Compound `O=C(NCc1cc(OC(F)(F)F)ccc1F)c1cn(CCC(F)Cn2cc(C(=O)NCc3cncc(C(F)(F)F)c3)nn2)nn1` (stereo not drawn) [Example 479, 1-{2-fluoro-4-[4-({[2-fluoro-5-(trifluoromethoxy)phenyl]methyl}carbamoyl)-1H-1,2,3-triazol-1-yl]butyl}-N-{[5-(trifluoromethyl)pyridin-3-yl]methyl}-1H-1,2,3-triazole-4-carboxamide] gave an EC50 with A549 cells of less than 100 nM. In addition, the IC50 in assay [1] was less than 100 nM.
`O=C(NCc1cncc(C(F)(F)F)c1)c1cn(CC(F)CCc2nnc(C(=O)NCc3cccc(C(F)(F)F)c3)s2)nn1` (stereo not drawn) [Example 480, 5-{3-fluoro-4-[4-({[5-(trifluoromethyl)pyridin-3-yl]methyl}carbamoyl)-1H-1,2,3-triazol-1-yl]butyl}-N-{[3-(trifluoromethyl)phenyl]methyl}-1,3,4-thiadiazole-2-carboxamide] registered an EC50 with A549 cells of less than 100 nM. The IC50 in assay [1] is less than 100 nM.
In turn, `O=C(NCc1ccc(C2CC2)nc1)c1cn(CC(F)CCc2nnc(C(=O)NCc3cccc(C(F)(F)F)c3)s2)nn1` (stereo not drawn) [Example 481, 5-[4-(4-{[(6-cyclopropylpyridin-3-yl)methyl]carbamoyl}-1H-1,2,3-triazol-1-yl)-3-fluorobutyl]-N-{[3-(trifluoromethyl)phenyl]methyl}-1,3,4-thiadiazole-2-carboxamide] gave an EC50 with A549 cells of less than 100 nM. Also, the IC50 in assay [1] is less than 100 nM.
`O=C(NCc1cncc(C(F)(F)F)c1)c1cn(CC(F)CCc2nnc(C(=O)NCc3cccc(OC(F)(F)F)c3)s2)nn1` (stereo not drawn) [Example 482, 5-{3-fluoro-4-[4-({[5-(trifluoromethyl)pyridin-3-yl]methyl}carbamoyl)-1H-1,2,3-triazol-1-yl]butyl}-N-{[3-(trifluoromethoxy)phenyl]methyl}-1,3,4-thiadiazole-2-carboxamide] returned a concentration giving a half-maximal response (EC50) in the assay with A549 cells of less than 100 nM. For the same compound, in assay [1], the IC50 is less than 100 nM.
Take `O=C(NCc1cccc(OC(F)(F)F)c1)c1cn(CC(F)CCc2nnc(C(=O)NCc3cncc(C(F)(F)F)c3)s2)nn1` (stereo not drawn) [Example 483, 5-{3-fluoro-4-[4-({[3-(trifluoromethoxy)phenyl]methyl}carbamoyl)-1H-1,2,3-triazol-1-yl]butyl}-N-{[5-(trifluoromethyl)pyridin-3-yl]methyl}-1,3,4-thiadiazole-2-carboxamide]: the EC50 with A549 cells is less than 100 nM. Besides, in assay [1], the IC50 is less than 100 nM.
For `O=C(NCc1cccc(C(F)(F)F)c1)c1cn(CC(F)CCc2nnc(C(=O)NCc3cncc(C(F)(F)F)c3)s2)nn1` (stereo not drawn) [Example 484, 5-{3-fluoro-4-[4-({[3-(trifluoromethyl)phenyl]methyl}carbamoyl)-1H-1,2,3-triazol-1-yl]butyl}-N-{[5-(trifluoromethyl)pyridin-3-yl]methyl}-1,3,4-thiadiazole-2-carboxamide], in the assay with A549 cells, the EC50 is less than 100 nM. Moreover, the 50% inhibitory concentration (IC50) in assay [1] is less than 100 nM.
`O=C(NCc1cncc(C(F)(F)F)c1)c1cn(CC(F)CCc2nnc(C(=O)NCc3cc(C(F)(F)F)ccn3)s2)nn1` (stereo not drawn) [Example 485, 5-{3-fluoro-4-[4-({[5-(trifluoromethyl)pyridin-3-yl]methyl}carbamoyl)-1H-1,2,3-triazol-1-yl]butyl}-N-{[4-(trifluoromethyl)pyridin-2-yl]methyl}-1,3,4-thiadiazole-2-carboxamide] yielded an EC50 in the assay with A549 cells of less than 100 nM. Moreover, the IC50 in assay [1] was less than 100 nM.
The compound `O=C(Cc1cccc(OC(F)(F)F)c1)Nc1cn(CC(F)CCn2cc(C(=O)NCc3ccc(C(F)(F)F)cn3)nn2)nn1` (stereo not drawn) [Example 486, 1-[3-fluoro-4-(4-{2-[3-(trifluoromethoxy)phenyl]acetamido}-1H-1,2,3-triazol-1-yl)butyl]-N-{[5-(trifluoromethyl)pyridin-2-yl]methyl}-1H-1,2,3-triazole-4-carboxamide] yielded an EC50 in the assay with A549 cells of less than 100 nM. In addition, in assay [1], the 50% inhibitory concentration (IC50) is less than 100 nM.
As for `O=C(Cc1cccc(OC(F)(F)F)c1)Nc1cn(CC(F)CCn2cc(C(=O)NCc3cccc(C(F)(F)F)n3)nn2)nn1` (stereo not drawn) [Example 487, 1-[3-fluoro-4-(4-{2-[3-(trifluoromethoxy)phenyl]acetamido}-1H-1,2,3-triazol-1-yl)butyl]-N-{[6-(trifluoromethyl)pyridin-2-yl]methyl}-1H-1,2,3-triazole-4-carboxamide], in the assay on A549 cells, the EC50 is less than 100 nM. The IC50 in assay [1] is less than 100 nM.
Take `O=C(NCc1cncc(C(F)(F)F)c1)c1cn(CC(F)CCc2nnc(C(=O)NCc3ccc(C(F)(F)F)cn3)s2)nn1` (stereo not drawn) [Example 488, 5-{3-fluoro-4-[4-({[5-(trifluoromethyl)pyridin-3-yl]methyl}carbamoyl)-1H-1,2,3-triazol-1-yl]butyl}-N-{[5-(trifluoromethyl)pyridin-2-yl]methyl}-1,3,4-thiadiazole-2-carboxamide]: the EC50 in the assay on A549 cells was less than 100 nM. In assay [1], the IC50 was less than 100 nM.
`O=C(NCc1cc(C(F)(F)F)ccn1)c1cn(CC(F)CCc2nnc(C(=O)NCc3ccc(C(F)(F)F)cn3)s2)nn1` (stereo not drawn) [Example 489, 5-{3-fluoro-4-[4-({[4-(trifluoromethyl)pyridin-2-yl]methyl}carbamoyl)-1H-1,2,3-triazol-1-yl]butyl}-N-{[5-(trifluoromethyl)pyridin-2-yl]methyl}-1,3,4-thiadiazole-2-carboxamide] returned an EC50 in the assay with A549 cells of less than 100 nM. Further, the IC50 in assay [1] was less than 100 nM.
`O=C(NCc1cncc(C(F)(F)F)c1)c1cn(CC(F)CCc2nnc(C(=O)NCc3cccc(C(F)(F)F)n3)s2)nn1` (stereo not drawn) [Example 490, 5-{3-fluoro-4-[4-({[5-(trifluoromethyl)pyridin-3-yl]methyl}carbamoyl)-1H-1,2,3-triazol-1-yl]butyl}-N-{[6-(trifluoromethyl)pyridin-2-yl]methyl}-1,3,4-thiadiazole-2-carboxamide] gave a concentration for a half-maximal effect (EC50) in the assay with A549 cells of less than 100 nM. In assay [1], the IC50 is less than 100 nM.
Compound `O=C(NCc1cc(C(F)(F)F)ccn1)c1cn(CC(F)CCc2nnc(C(=O)NCc3cccc(C(F)(F)F)n3)s2)nn1` (stereo not drawn) [Example 491, 5-{3-fluoro-4-[4-({[4-(trifluoromethyl)pyridin-2-yl]methyl}carbamoyl)-1H-1,2,3-triazol-1-yl]butyl}-N-{[6-(trifluoromethyl)pyridin-2-yl]methyl}-1,3,4-thiadiazole-2-carboxamide] gave an EC50 in the assay on A549 cells of less than 100 nM. In addition, in assay [1], the IC50 is less than 100 nM.
Consider `O=C(NCc1ccc(C(F)(F)F)cn1)c1cn(CC(F)CCc2nnc(C(=O)NCc3cccc(C(F)(F)F)n3)s2)nn1` (stereo not drawn) [Example 492, 5-{3-fluoro-4-[4-({[5-(trifluoromethyl)pyridin-2-yl]methyl}carbamoyl)-1H-1,2,3-triazol-1-yl]butyl}-N-{[6-(trifluoromethyl)pyridin-2-yl]methyl}-1,3,4-thiadiazole-2-carboxamide], for which the concentration for a half-maximal effect (EC50) in the assay on A549 cells was in the range of 100 to 500 nM. In assay [1], the IC50 was less than 100 nM.
The like results for `O=C(Cc1cccc(OC(F)(F)F)c1)Nc1nnc(CCC(F)Cn2cc(C(=O)NCc3ccc(C(F)(F)F)cn3)nn2)s1` (stereo not drawn) [Example 493, 1-[2-fluoro-4-(5-{2-[3-(trifluoromethoxy)phenyl]acetamido}-1,3,4-thiadiazol-2-yl)butyl]-N-{[5-(trifluoromethyl)pyridin-2-yl]methyl}-1H-1,2,3-triazole-4-carboxamide] were, in that order, less than 100 nM and less than 100 nM.
The matching figures for `O=C(Cc1cccc(OC(F)(F)F)c1)Nc1nnc(CCC(F)Cn2cc(C(=O)NCc3cccc(C(F)(F)F)n3)nn2)s1` (stereo not drawn) [Example 494, 1-[2-fluoro-4-(5-{2-[3-(trifluoromethoxy)phenyl]acetamido}-1,3,4-thiadiazol-2-yl)butyl]-N-{[6-(trifluoromethyl)pyridin-2-yl]methyl}-1H-1,2,3-triazole-4-carboxamide]: less than 100 nM and less than 100 nM.
The matching figures for `O=C(Cc1cccc(OC(F)(F)F)c1)Nc1nnc(CCC(F)Cn2cc(C(=O)NCc3cc(C(F)(F)F)ccn3)nn2)s1` (stereo not drawn) [Example 495, 1-[2-fluoro-4-(5-{2-[3-(trifluoromethoxy)phenyl]acetamido}-1,3,4-thiadiazol-2-yl)butyl]-N-{[4-(trifluoromethyl)pyridin-2-yl]methyl}-1H-1,2,3-triazole-4-carboxamide]: less than 100 nM and less than 100 nM.
In the case of `O=C(Cc1cccc(OC(F)(F)F)c1)Nc1nnc(CCC(F)Cn2cc(C(=O)NCc3cncc(C(F)(F)F)c3)nn2)s1` (stereo not drawn) [Example 496, 1-[2-fluoro-4-(5-{2-[3-(trifluoromethoxy)phenyl]acetamido}-1,3,4-thiadiazol-2-yl)butyl]-N-{[5-(trifluoromethyl)pyridin-3-yl]methyl}-1H-1,2,3-triazole-4-carboxamide], the EC50 with A549 cells is less than 100 nM. For the same compound, the IC50 in assay [1] is less than 100 nM.
The compound `CNC(=O)c1cn(CC(F)CCc2nnc(NC(=O)Cc3cccc(OC(F)(F)F)c3)s2)nn1` (stereo not drawn) [Example 497, 1-(2-fluoro-4-(5-(2-(3-(trifluoromethoxy)phenyl)acetamido)-1,3,4-thiadiazol-2-yl)butyl)-N-methyl-1H-1,2,3-triazole-4-carboxamide] gave an EC50 with A549 cells of 100 to 500 nM. The IC50 in assay [1] was less than 100 nM.
